Several values for one entry are separate records, joined by “and”; a condition that tells them apart may be missing. Equal values may be shown once.
Key:
[1] = target: Tyrosine-protein kinase ABL1 (Homo sapiens, UniProt P00519)
Description: Inhibitory activity against v-Abl tyrosine kinase

[2] = target: Cyclin-dependent kinase 1 (Homo sapiens, UniProt P06493); assay: Inhibitory activity against CDK1 Ser/Thr kinase
[3] = target: T1, Epidermal growth factor receptor (Homo sapiens, UniProt P00533)
Description: Inhibitory activity against epidermal growth factor receptor tyrosine kinase.

[4] = target: Protein kinase C alpha type (Homo sapiens, UniProt P17252); assay: Inhibitory activity against protein kinase C alpha […] kinase.
[5] = target: T2, Proto-oncogene tyrosine-protein kinase Src (Homo sapiens, UniProt P12931); assay: Inhibitory activity against c-Src tyrosine kinase
T2 sequence (P12931 2-536 limits assumed): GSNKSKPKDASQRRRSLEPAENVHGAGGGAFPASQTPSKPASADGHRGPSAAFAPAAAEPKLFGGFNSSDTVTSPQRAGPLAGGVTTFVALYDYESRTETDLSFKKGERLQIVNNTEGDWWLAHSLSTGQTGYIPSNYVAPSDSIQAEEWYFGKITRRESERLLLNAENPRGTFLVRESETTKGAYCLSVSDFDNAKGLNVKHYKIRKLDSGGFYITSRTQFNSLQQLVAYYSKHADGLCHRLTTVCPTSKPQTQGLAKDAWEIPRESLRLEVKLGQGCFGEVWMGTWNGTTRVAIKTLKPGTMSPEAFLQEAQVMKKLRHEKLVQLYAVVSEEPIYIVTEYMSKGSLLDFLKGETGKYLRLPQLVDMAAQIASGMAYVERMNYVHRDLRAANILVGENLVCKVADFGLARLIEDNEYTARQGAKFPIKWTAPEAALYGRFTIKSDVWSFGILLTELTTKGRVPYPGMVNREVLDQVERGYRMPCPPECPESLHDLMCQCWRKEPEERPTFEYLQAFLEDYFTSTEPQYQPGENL

Balb/MK [6] = assay: Inhibition of proliferation of EGF-dependent BALB/MK cells.; assay type: functional, cell-based; settings: Mus musculus
[7] = target: Platelet-derived growth factor receptor (Homo sapiens, UniProt P09619+P16234); assay: Inhibition of PDGF stimulated tyrosine phosphorylation in BALB/c3t3 cells.
[8] = target: T1, Epidermal growth factor receptor; assay: Inhibition of EGF-stimulated tyrosine phosphorylation in A431 cells.
[9] = target: T2, Proto-oncogene tyrosine-protein kinase Src; assay: Inhibition of c-Src tyrosine kinase
A-431 [10] = assay: In vivo activity against A431 xenografts in mice at 12.5 mg/kg ip dose; assay type: functional; settings: route intraperitoneal
A-431 [11] = assay: In vivo activity against A431 xenografts in mice at 12.5 mg/kg peroral dose; assay type: functional; settings: route oral
A-431 [12] = assay: In vivo activity against A431 xenografts in mice at 50 mg/kg ip dose; assay type: functional; settings: route intraperitoneal
Balb/MK [13] = assay: Inhibition of proliferation of EGF-dependent BALB/MK cells; assay type: functional, cell-based; settings: Mus musculus

Chain of Cyclin-dependent kinase 1 (P06493 whole entry): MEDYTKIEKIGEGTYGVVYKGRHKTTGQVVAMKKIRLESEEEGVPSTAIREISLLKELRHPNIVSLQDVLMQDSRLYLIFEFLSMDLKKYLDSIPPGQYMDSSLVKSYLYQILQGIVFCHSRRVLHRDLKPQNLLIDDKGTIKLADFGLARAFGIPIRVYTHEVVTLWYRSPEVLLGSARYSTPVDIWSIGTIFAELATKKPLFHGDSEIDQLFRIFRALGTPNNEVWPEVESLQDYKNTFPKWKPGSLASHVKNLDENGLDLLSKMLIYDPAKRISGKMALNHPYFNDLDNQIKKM
Chain of Tyrosine-protein kinase ABL1 (P00519 whole entry, looked up): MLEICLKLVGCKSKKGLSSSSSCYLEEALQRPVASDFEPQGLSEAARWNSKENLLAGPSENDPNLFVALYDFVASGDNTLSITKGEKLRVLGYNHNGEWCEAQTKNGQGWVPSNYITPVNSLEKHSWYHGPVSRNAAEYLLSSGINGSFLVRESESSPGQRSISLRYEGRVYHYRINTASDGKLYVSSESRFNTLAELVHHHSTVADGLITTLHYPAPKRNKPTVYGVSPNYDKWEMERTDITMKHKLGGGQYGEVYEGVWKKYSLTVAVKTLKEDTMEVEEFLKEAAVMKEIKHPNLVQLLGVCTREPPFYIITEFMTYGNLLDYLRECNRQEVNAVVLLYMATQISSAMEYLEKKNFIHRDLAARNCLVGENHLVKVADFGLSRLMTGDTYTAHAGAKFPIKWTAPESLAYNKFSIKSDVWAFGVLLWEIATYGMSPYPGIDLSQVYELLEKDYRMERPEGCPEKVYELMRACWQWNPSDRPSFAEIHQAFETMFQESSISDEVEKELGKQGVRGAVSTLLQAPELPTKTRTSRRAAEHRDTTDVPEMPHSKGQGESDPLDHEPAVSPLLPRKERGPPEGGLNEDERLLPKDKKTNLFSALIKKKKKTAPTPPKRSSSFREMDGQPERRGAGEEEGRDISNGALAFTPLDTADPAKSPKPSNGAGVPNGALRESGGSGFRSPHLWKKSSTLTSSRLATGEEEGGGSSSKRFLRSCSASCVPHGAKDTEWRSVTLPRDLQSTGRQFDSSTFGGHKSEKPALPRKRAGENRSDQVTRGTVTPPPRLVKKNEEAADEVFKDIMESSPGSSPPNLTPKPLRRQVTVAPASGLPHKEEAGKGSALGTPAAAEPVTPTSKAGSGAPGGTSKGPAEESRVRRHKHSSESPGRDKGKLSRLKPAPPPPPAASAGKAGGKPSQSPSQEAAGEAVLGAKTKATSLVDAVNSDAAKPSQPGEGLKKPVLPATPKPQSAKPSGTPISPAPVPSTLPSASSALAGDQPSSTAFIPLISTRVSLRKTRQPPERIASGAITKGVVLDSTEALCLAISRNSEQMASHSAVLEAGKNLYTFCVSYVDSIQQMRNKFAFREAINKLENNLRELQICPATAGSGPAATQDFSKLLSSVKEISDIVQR
T1 sequence (P00533 whole entry): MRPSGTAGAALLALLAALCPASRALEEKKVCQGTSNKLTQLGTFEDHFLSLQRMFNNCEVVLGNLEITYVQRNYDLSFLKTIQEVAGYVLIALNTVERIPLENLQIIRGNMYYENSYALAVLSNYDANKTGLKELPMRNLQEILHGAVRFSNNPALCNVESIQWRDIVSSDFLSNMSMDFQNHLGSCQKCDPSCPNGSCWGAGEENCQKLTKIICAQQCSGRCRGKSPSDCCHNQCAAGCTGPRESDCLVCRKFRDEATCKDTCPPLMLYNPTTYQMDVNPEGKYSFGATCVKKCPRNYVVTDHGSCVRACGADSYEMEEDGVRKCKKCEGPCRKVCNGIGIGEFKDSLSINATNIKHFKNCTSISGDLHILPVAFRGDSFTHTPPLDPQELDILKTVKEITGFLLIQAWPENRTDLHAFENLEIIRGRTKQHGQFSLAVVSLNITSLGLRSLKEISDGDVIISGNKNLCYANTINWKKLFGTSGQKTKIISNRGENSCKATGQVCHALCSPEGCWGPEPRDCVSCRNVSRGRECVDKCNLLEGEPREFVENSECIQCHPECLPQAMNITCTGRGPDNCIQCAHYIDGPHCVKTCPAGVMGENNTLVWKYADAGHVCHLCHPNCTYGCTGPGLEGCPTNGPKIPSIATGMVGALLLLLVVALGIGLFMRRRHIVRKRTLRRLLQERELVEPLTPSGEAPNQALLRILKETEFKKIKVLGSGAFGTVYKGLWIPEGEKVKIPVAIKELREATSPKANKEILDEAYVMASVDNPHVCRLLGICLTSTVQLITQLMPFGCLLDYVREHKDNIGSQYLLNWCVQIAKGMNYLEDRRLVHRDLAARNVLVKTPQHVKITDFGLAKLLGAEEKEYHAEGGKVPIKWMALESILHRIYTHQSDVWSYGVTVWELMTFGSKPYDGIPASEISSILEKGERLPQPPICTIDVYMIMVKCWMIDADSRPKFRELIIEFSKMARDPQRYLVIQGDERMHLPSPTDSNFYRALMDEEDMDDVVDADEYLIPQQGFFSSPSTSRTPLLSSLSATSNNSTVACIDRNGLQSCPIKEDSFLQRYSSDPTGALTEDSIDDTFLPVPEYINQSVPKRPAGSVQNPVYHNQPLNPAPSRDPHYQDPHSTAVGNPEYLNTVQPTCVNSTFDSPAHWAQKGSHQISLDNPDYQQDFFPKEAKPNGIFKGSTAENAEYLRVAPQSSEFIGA

Row | IC50 [1] [nM] | IC50 [2] [nM] | IC50 [3] [nM] | IC50 [4] [nM] | IC50 [5] [nM] | IC50 [7] [nM] | IC50 [8] [nM] | SMILES | IC50 (Balb/MK [6]) [nM] | IC50 [9] [nM] | T/C (A-431 [10]) [%] | T/C (A-431 [11]) [%] | T/C (A-431 [12]) | IC50 (Balb/MK [13]) [nM]
1 | 240 | 260 | 6 | 1850 | 8550 | > 10000 | 500 | Oc1ccc(-c2[nH]nc3ncnc(Nc4cccc(Cl)c4)c23)cc1 | 560 |  |  |  |  | 
2 | > 10000 | > 100000 | 270 | > 10000 | 9800 | > 10000 | > 100000 | O=[N+]([O-])c1cccc(-c2[nH]nc3ncnc(Nc4cccc(Cl)c4)c23)c1 | > 50000 |  |  |  |  | 
3 | 1360 |  | 130 | 3800 |  | > 10000 | < 800 | Clc1cccc(Nc2[nH]nc3ncnc(Nc4cccc(Br)c4)c23)c1 | 1430 | > 10000 |  |  |  | 
4 |  |  | 450000 |  |  |  |  | Cc1c(C)n(C)c2ncnc(Nc3cccc(Cl)c3)c12 |  |  |  |  |  | 
5 | 3400 | 4300 | 8 | 4700 | 7800 | > 10000 | 800 | COc1cccc(Nc2[nH]nc3ncnc(Nc4cccc(Cl)c4)c23)c1 | 950 |  |  |  |  | 
6 | 1360 |  | 84 | 7800 | 2250 | > 10000 | 1000 | Clc1cccc(Nc2[nH]nc3ncnc(Nc4ccccc4)c23)c1 | 2560 |  |  |  |  | 
7 | 6600 | 7400 | 7 | 10000 | > 10000 | > 10000 | 3 | Clc1cccc(Nc2[nH]cnc3nnc(NCc4ccccc4)c2-3)c1 | 300 |  |  |  |  | 
8 | > 10000 |  | 800 | > 100000 |  | > 10000 |  | Nc1ncnc2c1c(-c1ccccc1)nn2-c1ccccc1 |  |  |  |  |  | > 50000
9 | 3500 | 3100 | 8 | > 100000 | > 10000 | > 10000 | 200 | COc1cccc(CNc2[nH]nc3ncnc(Nc4cccc(Cl)c4)c23)c1 | 810 |  |  |  |  | 
10 |  | 100000 |  | > 100000 | 1400 |  |  | COc1cc2ncnc(Nc3cccc(Br)c3)c2cc1OC | 200 |  |  |  |  | 
11 |  |  | 2710 |  |  |  |  | Cc1c(C)n(-c2ccccc2)c2ncnc(N)c12 |  |  |  |  |  | 
12 | 1180 | > 1000 |  | > 1000 | 2400 | > 10000 |  | Nc1ccc(Nc2[nH]nc3ncnc(Nc4cccc(Cl)c4)c23)cc1 |  |  |  |  |  | 
13 | 3090 | 680 | 5 | 1500 | > 10000 | > 10000 | 800 | Nc1cccc(-c2[nH]nc3ncnc(Nc4cccc(Cl)c4)c23)c1 | 940 |  |  |  |  | 
14 | 16500 | > 100000 | 96 | > 10000 | > 10000 | > 10000 | 1500 | COc1ccc(-c2[nH]nc3ncnc(Nc4cccc(Cl)c4)c23)cc1 | 1600 |  |  |  |  | 
15 | > 10000 | 16000 | 26 | > 10000 | 2090 | > 10000 | 1500 | Clc1cccc(CNc2[nH]nc3ncnc(Nc4cccc(Cl)c4)c23)c1 | 3190 |  |  |  |  | 
16 | > 10000 |  | 24200 | > 100000 | > 10000 | > 10000 | > 100000 | Clc1cccc(Nc2[nH]nc3ncnc(Oc4cccc(Cl)c4)c23)c1 | > 50000 |  |  |  |  | 
17 |  |  | 15000 |  |  |  |  | Nc1ncnc2c1ncn2-c1ccccc1 |  |  |  |  |  | 
18 |  |  | 2700 |  |  |  |  | Nc1ncnc2c1cnn2-c1ccccc1 |  |  |  |  |  | 

Continued, compound first:

Row | SMILES | IC50 [1] [nM] | IC50 [2] [nM] | IC50 [3] [nM] | IC50 [4] [nM] | IC50 [5] [nM] | IC50 [7] [nM] | IC50 [8] [nM] | IC50 (Balb/MK [6]) [nM] | IC50 [9] [nM] | T/C (A-431 [10]) [%] | T/C (A-431 [11]) [%] | T/C (A-431 [12]) | IC50 (Balb/MK [13]) [nM]
19 | Clc1cccc(Nc2[nH]cnc3nnc(-c4ccccc4)c2-3)c1 | 3760 | 2800 | 19 | > 10000 |  | > 10000 | 30 | 820 | > 10000 |  |  |  | 
20 | Clc1cccc(Nc2[nH]nc3ncnc(NCc4ccccc4)c23)c1 | > 10000 | 9000 | 870 | 4500 | > 10000 | > 10000 | 1500 | 49900 |  |  |  |  | 
21 | Cc1cccc(Nc2ncnc3[nH]nc(Nc4cccc(Cl)c4)c23)c1 | 1650 |  | 130 | 4700 |  | > 10000 | 150 | 2700 | 8080 | 27 | 44 | 21% and 23% | 
22 | CC(C)(C)OC(=O)Nc1ccc(Nc2[nH]nc3ncnc(Nc4cccc(Cl)c4)c23)cc1 | > 10000 | 57000 | > 10000 | > 10000 | > 10000 | > 10000 | > 100000 | > 10000 |  |  |  |  | 
23 | Nc1[nH]cnc2nnc(Nc3cccc(Cl)c3)c1-2 | 410 |  | 160 | 24000 | 6000 | > 10000 | 35000 | 14000 |  |  |  |  | 
24 | Oc1cccc(Nc2[nH]nc3ncnc(Nc4cccc(Cl)c4)c23)c1 | 260 | 3000 | 1 | 560 | 220 | > 10000 | 4 | 460 |  |  |  |  | 
25 | Nc1nc(N)c2c(Nc3cccc(Cl)c3)[nH]nc2n1 | 410 |  | 220 | 24000 | 6000 | > 10000 | 9000 | 2870 |  |  |  |  | 
26 | Oc1ccc(Nc2[nH]nc3ncnc(Nc4cccc(Cl)c4)c23)cc1 | 150 | > 1000 | 8 | > 1000 | 400 | > 10000 | 40 | 1060 |  |  |  |  | 
27 | COc1ccc(CNc2[nH]nc3ncnc(Nc4cccc(Cl)c4)c23)cc1 | > 10000 | 5000 | 7 | > 100000 | > 10000 | > 10000 | 20 | 860 |  |  |  |  | 
28 | COc1ccc(Nc2[nH]nc3ncnc(Nc4cccc(Cl)c4)c23)cc1 | > 10000 | 5800 | 30 | 19000 | > 10000 | 10000 | 1500 | 1030 |  |  |  |  | 
29 | Oc1cccc(-c2[nH]nc3ncnc(Nc4cccc(Cl)c4)c23)c1 | 180 | 200 | 26 | > 10000 | 2 | > 10000 | 1500 | 990 |  |  |  |  | 
30 | c1ccc(Nc2ncnc3n[nH]c(Nc4ccccc4)c23)cc1 | 1960 |  | 58 | 6900 | 75000 | > 10000 | 12000 | 8400 |  |  |  |  | 
31 | CN(C)c1ccc(Nc2[nH]nc3ncnc(Nc4cccc(Cl)c4)c23)cc1 | > 10000 | 350 | 29 | 2900 | > 10000 | 10000 | 1500 | 1550 |  |  |  |  | 
32 | Nc1ccc(-c2[nH]nc3ncnc(Nc4cccc(Cl)c4)c23)cc1 | 3600 | 4500 | 2 | 3600 | 4900 | > 10000 | 800 | 780 |  |  |  |  | 
33 | Clc1cccc(Nc2ncnc3n[nH]c(Nc4cccc(Cl)c4)c23)c1 | 1980 |  | 330 | 5900 | 5300 | 10000 | 250 | 1400 |  | 46 | 41 | 25% and 31% | 
34 | CC(C)(C)OC(=O)Nc1ccc(-c2[nH]nc3ncnc(Nc4cccc(Cl)c4)c23)cc1 |  |  | 270 | > 10000 | 9800 | > 10000 | 1500 | 4300 |  |  |  |  | 
